The target in this assay is soluble guanylate cyclase (sGC) (Homo sapiens (Human), UniProt Q02108+Q02153). Description: sGC-HEK-cGMP assay with SNP incubation, LC/MS detection (Example 2A). The assay is classed as cell-based. The note with it: HEK293 cells, 10 μM SNP, LC/MS detection; for Emax: 100% = BAY 41-2272 at 10 μM, read-out: HEK assay Emax - unconstrained (%). The protocol:
Human embryonic kidney cells (HEK293), endogenously expressing soluble guanylate cyclase (sGC), were used to evaluate the activity of test compounds. Compounds stimulating the sGC receptor should cause an increase in the intracellular concentration of cGMP. HEK 293 cells were seeded in Dulbecco's Modification of Eagle's Medium supplemented with fetal bovine serum (10% final) and L-glutamine (2 mM final) in a 200 L volume at a density of 1×10^5 cells/well in a poly-D-lysine coated 96 well flat bottom plate and grown overnight at 37° C. Medium was aspirated and cells were washed with 1× Hank's Buffered Saline Salt Solution (200 μL). Cells were then incubated for 15 minutes at 37° C. with 200 μL of a 0.5 mM 3-isobutyl-1-methylxanthine (IBMX) solution. Test article and sodium nitroprusside solutions (x μM concentration for test article solution and 10 μM concentration for SNP solution; wherein x is one of the following concentrations: 30 μM, 10 μM, 3 μM, 1 μM, 0.3 μM, 0.1 μM, 0.03 μM, 0.01 μM, 0.003 μM, 0.001 μM, 0.0003 μM or 0.0001 μM) were then added to the assay mixture (2 μL each) and the resulting mixture incubated at 37° C. for 10 minutes. After the 10 minute incubation, the assay mixture was aspirated and 0.1M HCl (200 μL) was added to the cells. The plate was incubated at 4° C. for 30 minutes in the 0.1M HCl to stop the reaction and lyse the cells. The plates were then centrifuged at 1,200 g for 5 minutes at room temperature. Supernatants were collected and transferred to a new flat bottom 96 well plate for analysis by HPLC-MS. Vehicle controls were carried out using DMSO (1%) solutions. A known sGC stimulator, BAY 41-2272, was used as the positive control. Samples were diluted with an equal volume of 1 M Ammonium Acetate (pH 7) to neutralize samples for better chromatography. A 2× cGMP standard solution was prepared in 0.1 M HCl and then diluted with an equal volume of 1 M Ammonium Acetate, with the following final concentrations in nM: 1024, 512, 256, 128, 64, 32, 16, 8, 4, 2, 1. cGMP concentrations in the test plates were determined from each sample using the LC/MS conditions shown in Table 2 below and the calculated cGMP standard curve. EC50 values were calculated from concentration-response curves generated with GraphPad Prism Software. Data were normalized to a high control using the following equation: 100*(Sample−Low Control)/(High Control−Low Control), where the low control is the average of 6 samples treated with 1% DMSO, and the high control is the average of 8-12 samples treated with 10 uM BAY 41-2272. Data were fit using a non-linear regression, sigmoidal dose response, 3 parameter fits.

[1] abbreviates: top of curve not fitted to 100%, read-out: HEK assay EC50 - unconstrained.

Data on 42 compounds can be found in US10183021B2, “sGC stimulators” (Ironwood Pharmaceuticals, Inc., priority 2013, dated 2019).

Like-named read-outs stand apart in the source and are kept apart here. A value given as a limit tells only on which side of the number the result lay.

Sequence of soluble guanylate cyclase (sGC) (Q02153 whole entry): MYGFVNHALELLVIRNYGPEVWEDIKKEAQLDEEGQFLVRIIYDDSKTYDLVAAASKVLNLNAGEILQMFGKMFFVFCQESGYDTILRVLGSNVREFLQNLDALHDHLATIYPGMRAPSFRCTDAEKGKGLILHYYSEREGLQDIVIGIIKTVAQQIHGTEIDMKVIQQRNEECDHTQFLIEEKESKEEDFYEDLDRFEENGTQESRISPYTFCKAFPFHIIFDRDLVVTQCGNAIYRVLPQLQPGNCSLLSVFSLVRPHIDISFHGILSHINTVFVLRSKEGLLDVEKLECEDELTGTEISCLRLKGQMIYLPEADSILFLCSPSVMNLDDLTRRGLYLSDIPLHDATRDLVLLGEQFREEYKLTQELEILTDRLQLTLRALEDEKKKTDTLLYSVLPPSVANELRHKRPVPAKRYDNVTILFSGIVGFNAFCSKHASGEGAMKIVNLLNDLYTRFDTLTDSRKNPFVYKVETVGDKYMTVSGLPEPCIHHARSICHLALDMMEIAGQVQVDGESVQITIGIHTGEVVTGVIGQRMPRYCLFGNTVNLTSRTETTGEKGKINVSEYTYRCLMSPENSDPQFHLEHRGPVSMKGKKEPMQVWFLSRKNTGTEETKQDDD
Sequence of soluble guanylate cyclase (sGC) (Q02108 whole entry): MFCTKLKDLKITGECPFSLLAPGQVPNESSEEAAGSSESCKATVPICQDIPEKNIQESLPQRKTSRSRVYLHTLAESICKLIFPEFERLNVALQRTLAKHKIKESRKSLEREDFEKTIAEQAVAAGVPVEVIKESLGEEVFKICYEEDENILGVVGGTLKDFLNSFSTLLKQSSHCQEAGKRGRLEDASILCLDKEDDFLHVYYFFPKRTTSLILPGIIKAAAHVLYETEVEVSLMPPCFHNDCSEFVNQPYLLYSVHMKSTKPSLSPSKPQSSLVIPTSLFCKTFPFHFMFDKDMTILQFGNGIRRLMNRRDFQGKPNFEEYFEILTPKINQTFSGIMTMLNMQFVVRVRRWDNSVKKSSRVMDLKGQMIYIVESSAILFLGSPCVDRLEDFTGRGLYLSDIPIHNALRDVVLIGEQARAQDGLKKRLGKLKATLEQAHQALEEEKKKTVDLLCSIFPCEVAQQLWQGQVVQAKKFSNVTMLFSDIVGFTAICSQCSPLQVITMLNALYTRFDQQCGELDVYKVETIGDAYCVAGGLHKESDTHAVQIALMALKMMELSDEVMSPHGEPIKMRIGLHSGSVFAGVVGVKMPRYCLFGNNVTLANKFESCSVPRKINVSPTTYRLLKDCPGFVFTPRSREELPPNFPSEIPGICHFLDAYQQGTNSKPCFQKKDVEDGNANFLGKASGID

In general, Emax refers to the greatest response seen or fitted, relative to the assay's reference. A word on the EC50: it is the concentration that produces a half-maximal response. On to `CCNC(=O)NC1CN(c2nc(-c3cc(-c4ccon4)n(Cc4ccccc4F)n3)ncc2F)C1` [Compound I-71], for which the Emax fell in the range of 60 to 80%. For the same compound, under setting [1], the EC50 was in the range of 100 to 500 nM.
Take `O=S1(=O)CCN(C2CN(c3nc(-c4cc(-c5ccon5)n(Cc5ccccc5F)n4)ncc3F)C2)CC1` [Compound I-72]: the maximum response (Emax) lay in the range of 60 to 80%. Moreover, the 50% effective concentration (EC50) under setting [1] lay in the range of 100 to 500 nM.
Taken in the same sequence, the figures for `COc1cnc(-c2cc(-c3ccon3)n(Cc3ccccc3F)n2)nc1N1CCOCC1` [Compound I-73] were 40 to 60% and 5000 to 10000 nM.
Taken in the same sequence, the figures for `Fc1ccccc1Cn1nc(-c2ncc(F)c(-n3cccn3)n2)cc1-c1ccon1` [Compound I-74] were 40 to 60% and 1000 to 5000 nM.
Taken in the same sequence, the figures for `O=C(O)C1CCCCCN1c1nc(-c2cc(-c3ccon3)n(Cc3ccccc3F)n2)ncc1F` (centres unmarked) [Compound I-75] were 60 to 80% and 100 to 500 nM.
On to `O=C(O)C1CCN(c2nc(-c3cc(-c4ccon4)n(Cc4ccccc4F)n3)ncc2F)C1` (centres unmarked) [Compound I-76], for which the maximum response (Emax) was in the range of 60 to 80%. Moreover, under setting [1], the EC50 lay within 500 to 1000 nM.
The corresponding values for `O=C(O)[C@H](Cc1ccccc1)Nc1nc(-c2cc(-c3ccon3)n(Cc3ccccc3F)n2)ncc1F` [Compound I-80] are 80 to 100% and 500 to 1000 nM.
Taken in the same sequence, the figures for `OCC1C[C@H]2CC[C@@H](C1)N2c1nc(-c2cc(-c3ccon3)n(Cc3ccccc3F)n2)ncc1F` (some centres unmarked) [Compound I-82] were 60 to 80% and 100 to 500 nM.
Regarding `O=C(O)C1CN(c2nc(-c3cc(-c4ccon4)n(Cc4ccccc4F)n3)ncc2F)CCO1` (centres unmarked) [Compound I-83], for the setting “top of curve fitted to 100%, read-out: HEK assay EC50 - constrained”, the concentration for a half-maximal effect (EC50) was > 10000 nM.
For the compound `CC(C)[C@@H](Nc1nc(-c2cc(-c3ccon3)n(Cc3ccccc3F)n2)ncc1F)C(=O)O` [Compound I-86], the Emax lay in the range of 80 to 100%. Besides, under setting [1], the EC50 was in the range of 100 to 500 nM.
`O=C(O)[C@H]1Cc2ccccc2N1c1nc(-c2cc(-c3ccon3)n(Cc3ccccc3F)n2)ncc1F` [Compound I-91]: the maximal effect (Emax) was 40 to 60%. The 50% effective concentration (EC50) under setting [1] was 5000 to 10000 nM.
The corresponding values for `O=C(O)C1C2CCC(C2)N1c1nc(-c2cc(-c3ccon3)n(Cc3ccccc3F)n2)ncc1F` (centres unmarked) [Compound I-92] are 60 to 80% and 1000 to 5000 nM.
The corresponding values for `O=C(O)C1(Nc2nc(-c3cc(-c4ccon4)n(Cc4ccccc4F)n3)ncc2F)CCC1` [Compound I-94] are 60 to 80% and 1000 to 5000 nM.
Taken in the same sequence, the figures for `O=C(O)C1c2ccccc2CCN1c1nc(-c2cc(-c3ccon3)n(Cc3ccccc3F)n2)ncc1F` (centres unmarked) [Compound I-97] were 60 to 80% and 1 to 100 nM.
`Cc1noc(C2CCCCN2c2nc(-c3cc(-c4ccon4)n(Cc4ccccc4F)n3)ncc2F)n1` (centres unmarked) [Compound I-98]: the Emax was 40 to 60%. Besides, the EC50 under setting [1] lay in the range of 1000 to 5000 nM.
Regarding `O=C(O)C(Nc1nc(-c2cc(-c3ccon3)n(Cc3ccccc3F)n2)ncc1F)C1COC1` (centres unmarked) [Compound I-102], the Emax was 60 to 80%. Also, under setting [1], the 50% effective concentration (EC50) lay within 1000 to 5000 nM.
Turning to `CC(C)C[C@@H](Nc1nc(-c2cc(-c3ccon3)n(Cc3ccccc3F)n2)ncc1F)C(=O)O` [Compound I-103], the Emax lay in the range of 80 to 100%. Besides, the concentration for a half-maximal effect (EC50) under setting [1] was 1 to 100 nM.
On to `NC(=O)C1CCCCN1c1nc(-c2cc(-c3ccon3)n(Cc3ccccc3F)n2)ncc1F` (centres unmarked) [Compound I-105], for which the Emax fell in the range of 40 to 60%. The EC50 under setting [1] lay within 100 to 500 nM.
Consider `O=C1CCCCCN1CCCNc1nc(-c2cc(-c3ccon3)n(Cc3ccccc3F)n2)ncc1F` [Compound I-109], for which the Emax lay within 60 to 80%. Further, the EC50 under setting [1] lay in the range of 100 to 500 nM.
As to `CC(C)(C)OC(=O)N1CCC(Nc2nc(-c3cc(-c4ccon4)n(Cc4ccccc4F)n3)ncc2F)(C(=O)O)CC1` [Compound I-110], the Emax was in the range of 20 to 40%. In addition, the concentration for a half-maximal effect (EC50) under setting [1] is > 10000 nM.
Turning to `O=C(O)[C@@H](CO)Nc1nc(-c2cc(-c3ccon3)n(Cc3ccccc3F)n2)ncc1F` [Compound I-112], the Emax lay within 20 to 40%. The EC50 under setting [1] was 1000 to 5000 nM.
Take `Fc1ccccc1Cn1nc(-c2ncc(F)c(N3CCn4cnnc4C3)n2)cc1-c1ccon1` [Compound I-113]: the maximal effect (Emax) lay in the range of 60 to 80%. Further, under setting [1], the EC50 fell in the range of 500 to 1000 nM.
Turning to `CCOC(=O)c1nnc2n1CCN(c1nc(-c3cc(-c4ccon4)n(Cc4ccccc4F)n3)ncc1F)C2` [Compound I-115], the maximal effect (Emax) was 40 to 60%. The concentration for a half-maximal effect (EC50) under setting [1] was in the range of 1 to 100 nM.
The corresponding values for `O=C(O)[C@@H](Cc1ccccc1)Nc1nc(-c2cc(-c3ccon3)n(Cc3ccccc3F)n2)ncc1F` [Compound I-116] are 60 to 80% and 100 to 500 nM.
For the compound `O=C(O)[C@@H](Nc1nc(-c2cc(-c3ccon3)n(Cc3ccccc3F)n2)ncc1F)c1ccccc1` [Compound I-117], the maximal response (Emax) lay in the range of 40 to 60%. Besides, the EC50 under setting [1] fell in the range of 1000 to 5000 nM.
Turning to `O=C(O)[C@H](Nc1nc(-c2cc(-c3ccon3)n(Cc3ccccc3F)n2)ncc1F)c1ccccc1` [Compound I-118], the maximal response (Emax) lay in the range of 80 to 100%. The concentration giving a half-maximal response (EC50) under setting [1] lay within 1000 to 5000 nM.
Take `O=C(O)C1Cc2ccccc2CN1c1nc(-c2cc(-c3ccon3)n(Cc3ccccc3F)n2)ncc1F` (centres unmarked) [Compound I-119]: the Emax is 40 to 60%. Also, under setting [1], the EC50 lay in the range of 100 to 500 nM.
Taken in the same sequence, the figures for `O=C(O)[C@@H]1c2ccccc2CCN1c1nc(-c2cc(-c3ccon3)n(Cc3ccccc3F)n2)ncc1F` [Compound I-120] were 60 to 80% and 100 to 500 nM.
Taken in the same sequence, the figures for `N#CC1CCN(c2nc(-c3cc(-c4ccon4)n(Cc4ccccc4F)n3)ncc2F)CC1` [Compound I-123] were 60 to 80% and 100 to 500 nM.
Taken in the same sequence, the figures for `CS(=O)(=O)N1CCN(c2nc(-c3cc(-c4ccon4)n(Cc4ccccc4F)n3)ncc2F)CC1` [Compound I-125] were 40 to 60% and 1 to 100 nM.
In the case of `CC(C)C[C@@H](C(=O)O)N(C)c1nc(-c2cc(-c3ccon3)n(Cc3ccccc3F)n2)ncc1F` [Compound I-137], the Emax lay within 80 to 100%. The EC50 under setting [1] was in the range of 100 to 500 nM.
The corresponding values for `CC(C)(C)OC(=O)NS(=O)(=O)N1CCN(c2nc(-c3cc(-c4ccon4)n(Cc4ccccc4F)n3)ncc2F)CC1` [Compound I-139] are 80 to 100% and 100 to 500 nM.
The corresponding values for `N#CCNc1nc(-c2cc(-c3ccon3)n(Cc3ccccc3F)n2)ncc1F` [Compound I-141] are 60 to 80% and 100 to 500 nM.
The corresponding values for `O=C(NS(=O)(=O)C1CC1)C1CCCCN1c1nc(-c2cc(-c3ccon3)n(Cc3ccccc3F)n2)ncc1F` (centres unmarked) [Compound I-144] are 80 to 100% and 500 to 1000 nM.
`Fc1ccccc1Cn1nc(-c2ncc(F)c(N3CCC(c4nnn[nH]4)CC3)n2)cc1-c1ccon1` [Compound I-145]: the maximal effect (Emax) lay in the range of 80 to 100%. Further, under setting [1], the EC50 was in the range of 1000 to 5000 nM.
The corresponding values for `Fc1ccccc1Cn1nc(-c2ncc(F)c(NCc3nn[nH]n3)n2)cc1-c1ccon1` [Compound I-146] are 80 to 100% and 100 to 500 nM.
Taken in the same sequence, the figures for `CC(C)(C)[C@@H](Nc1nc(-c2cc(-c3ccon3)n(Cc3ccccc3F)n2)ncc1F)C(=O)O` [Compound I-148] were 80 to 100% and 100 to 500 nM.
The corresponding values for `Fc1ccccc1Cn1nc(-c2nc(Cl)c(F)c(N3CCOCC3)n2)cc1-c1ccon1` [Compound I-150] are 40 to 60% and 100 to 500 nM.
On to `CC(C)(C)[C@H](Nc1nc(-c2cc(-c3ccon3)n(Cc3ccccc3F)n2)ncc1F)C(=O)O` [Compound I-151], for which the Emax fell in the range of 60 to 80%. Under setting [1], the EC50 fell in the range of 500 to 1000 nM.
Taken in the same sequence, the figures for `CC1(C)CN(c2nc(-c3cc(-c4ccon4)n(Cc4ccccc4F)n3)ncc2F)CC1C(=O)O` (centres unmarked) [Compound I-152] were 80 to 100% and 1 to 100 nM.
Taken in the same sequence, the figures for `CN(c1ccccc1C(=O)O)c1nc(-c2cc(-c3ccon3)n(Cc3ccccc3F)n2)ncc1F` [Compound I-153] were 60 to 80% and 100 to 500 nM.
In the case of `O=C(O)C1CCCCC1Nc1nc(-c2cc(-c3ccon3)n(Cc3ccccc3F)n2)ncc1F` (centres unmarked) [Compound I-154], the Emax was 60 to 80%. In addition, under setting [1], the half-maximal effective concentration (EC50) lay within 100 to 500 nM.
